From US20070155841A1, “Preventive agent for carcinogenesis of liver cancer containing quinone-based compound as active ingredient” (Eisai Co., Ltd., priority 2004, published 2007)

Columns and labels:
tumor cells = conditions: Non-Patent Literature 5; cited from earlier work
[1] = test system: liver cancer (hepatocellular carcinoma) in female virus cirrhosis patients; assay: Randomized clinical trial with 7-year follow-up: development of liver cancer in virus cirrhosis patients; type: in vivo, human; conditions: for Adjusted odds ratio for development of HCC (treatment group to control group): multivariate analysis adjusted for age, ALT, albumin, total bilirubin, platelet count, AFP, history of IFN-α, 95% CI 0.016-0.992, P 0.0491; for Crude odds ratio for development of HCC (treatment group to control group): univariate analysis, 95% CI 0.042-0.913, P 0.038
Method: A primary test was conducted targeting 50 female virus cirrhosis patients.
The diagnosis of cirrhosis was based on histological examination of liver specimens obtained by laparoscopy or needle biopsy performed under ultrasonic guidance.
Half were randomly assigned to receive 45 mg/day of vitamin K2 (Glakay;
Eisai Co., Tokyo, Japan) p.o., and half were assigned to the control group. Randomization was performed by placing the treatment assignments in sealed envelopes.
At the end of the first study, 21 patients in the treatment group and 19 patients in the control group agreed to participate in a longer trial. These patients were infected with the hepatitis C virus except for one patient in each group that had hepatitis B.
The clinical trial was conducted in accordance with the Helsinki Declaration and was approved by our ethics committee.
Statistical analysis was carried out with SAS software (version 8.12). The χ2 test was used to assess the homogeneity of groups. Cumulative incidences were plotted by the Kaplan-Meier method, and statistical significance of differences was analyzed by the log-rank test. Cox's regression analysis was used for univariate and multivariate analysis. In both studies, the two groups were similar with respect to age, the Child-Pugh stage, and the other clinical findings (See Table 1).

[2] = cited from earlier work
leukemia cells = conditions: in vitro, Patent Literature 1; cited from earlier work
[3] = test system: liver cancer which has been treated; conditions: Non-Patent Literature 6 and 7, cited from earlier work

SMILES | induction of apoptosis (tumor cells) | Adjusted odds ratio for development of HCC (treatment group to control group) ([1]; listed as VK2) | Adjusted odds ratio for development of HCC (treatment group to control group) ([1]; listed as vitamin K2) | cumulative incidence percentage of liver cancer patients versus control group ([1]; treatment group, 45 mg/day p.o., 7-year follow-up, Kaplan-Meier (FIG. 1)) | patients who developed liver cancer ([1]; treatment group, 45 mg/day p.o., 7-year follow-up, control group 9 of 19) | Crude odds ratio for development of HCC (treatment group to control group) ([1]; listed as VK2) | Crude odds ratio for development of HCC (treatment group to control group) ([1]; listed as vitamin K2) | solubility in water [2] | differentiation induction activity (leukemia cells) | recurrence of treated liver cancer ([3]; patients who already had cancer) | survival percentage ([3]; patients with treated liver cancer)
CC(C)=CCC/C(C)=C/CC/C(C)=C/CC/C(C)=C/CO [geranylgeraniol] | potent inducer of apoptosis in tumor cells |  |  |  |  |  |  |  |  |  | 
CC(C)=CCC/C(C)=C/CC/C(C)=C/CC/C(C)=C/CC1=C(C)C(=O)c2ccccc2C1=O [menatetrenone, 2-methyl-3-tetraprenyl-1,4-naphthoquinone] |  | 0.126 | 0.126 (0.016 to 0.992) | much smaller than that in the control group | 2 of 21 | 0.195 | 0.195 (from 0.042 to 0.913) | nearly insoluble in water | differentiation induction activity in leukemia cells | suppresses recurrence of liver cancer | heightens the survival percentage
